Measurements: the OPERA property sets (Mansouri et al. 2018)

Settings: not given

Row | SMILES | log10 vapour pressure (mmHg) | melting point [°C] | boiling point [°C] | log10 Koa | log10 Henry constant (atm·m³/mol) | ready biodegradability | log10 Koc (L/kg)
1 | Brc1cccc2c1Oc1cccc(Br)c1O2 | -5.95 | 207 |  |  |  |  | 
2 | O=C(O)[C@@H]1CCc2ccccc2C1 |  | 97.7 |  |  |  |  | 
3 | CCCC(CC)c1ccccc1 (stereo unspecified) |  | -55.4 | 209 |  |  |  | 
4 | Brc1ccc(Oc2ccccc2)cc1Br |  |  |  | 8.55 |  |  | 
5 | Cc1ccc(N)cc1F |  | 31 |  |  |  |  | 
6 | CCCl | 3 | -139 | 12.3 |  | -1.95 | not readily biodegradable | 
7 | C=C(C)C(=O)OCC(CC)CCCC (stereo unspecified) |  |  |  |  |  | readily biodegradable | 
8 | FC(F)(F)C(F)(F)C(F)(F)C(F)(F)C(F)(F)C(F)(F)C(F)(F)C(F)(F)Br |  |  | 141 |  |  |  | 
9 | OCC(F)(F)C(F)(F)C(F)(F)C(F)(F)C(F)(F)C(F)F |  |  |  |  |  | not readily biodegradable | 
10 | CCN(C)C |  | -140 | 36.5 |  |  |  | 
11 | C1SCSCS1 |  | 220 |  |  |  |  | 
12 | NS(=O)(=O)c1ccc(S(=O)(=O)CCO)c(F)c1 |  | 165 |  |  |  |  | 
13 | OCC(F)(F)C(F)(F)C(F)(F)F | 1.52 |  | 95 |  |  |  | 
14 | Cc1ccc([N+](=O)[O-])cc1N |  | 106 |  |  |  |  | 
15 | COC(=O)C(C)Cl (stereo unspecified) |  |  | 132 |  |  | readily biodegradable | 
16 | O=C(O)C1CC=CCC1C(=O)O (stereo unspecified) |  |  |  |  |  | not readily biodegradable | 
17 | CCC1(CC)C(=O)NC(=O)N(C)C1=O |  | 150 |  |  |  |  | 
18 | CCC(C(=O)O)C1(O)CCC(c2ccccc2)CC1 (stereo unspecified) |  | 157 |  |  |  |  | 
19 | N#CCCCCCCC#N |  | -3.5 |  |  |  |  | 
20 | OCCSCCCCCCCCCCSCCO |  | 69.5 |  |  |  |  | 
21 | CCN(CC)C(N)=O |  | 75 |  |  |  |  | 
22 | CC1(C)C(C=C(Cl)Cl)C1C(=O)OCc1cccc(Oc2ccccc2)c1 (stereo unspecified) | -7.66 | 34 |  |  |  |  | 4.8
23 | CN(C)c1ccc(C(O)(c2ccccc2)c2ccc(N(C)C)cc2)cc1 |  | 113 |  |  |  |  | 
24 | CC=Cc1ccc(OCC)c(O)c1 |  | 87 |  |  |  |  | 
25 | O=c1cccccc1 |  | -7 |  |  |  |  | 
26 | Cc1ccc(Cl)c([N+](=O)[O-])c1 |  | 7 | 261 |  |  |  | 

Row | SMILES | log10 vapour pressure (mmHg) | melting point [°C] | boiling point [°C] | log10 Koa | log10 Henry constant (atm·m³/mol) | ready biodegradability | log10 Koc (L/kg)
27 | CCCCCC1OC1CC1OC1CCCCCCCC(=O)OCC(COC(=O)CCCCCCCC1OC1CC1OC1CCCCC)OC(=O)CCCCCCCC1OC1CC1OC1CCCCC (stereo unspecified) |  |  |  |  |  | readily biodegradable | 
28 | c1ccc(-n2cccc2)cc1 |  | 62 | 234 |  |  |  | 
29 | C[C@]1(C(=O)O)CCC[C@]2(C)c3cc(O)ccc3CC[C@@H]12 |  | 194 |  |  |  |  | 
30 | O=C(O)c1cccc2cccc(Cl)c12 |  | 172 |  |  |  |  | 
31 | Nc1cc2ccccc2cc1N |  | 199 |  |  |  |  | 
32 | O=C(O)c1ccc(Sc2ccccc2)cc1 |  |  |  |  |  | readily biodegradable | 
33 | O=C(/C=C/c1ccc([N+](=O)[O-])cc1)c1ccccc1 |  | 159 |  |  |  |  | 
34 | Cc1c(C)c([N+](=O)[O-])c(C)c(C)c1[N+](=O)[O-] |  | 212 |  |  |  |  | 
35 | CC(=O)OCCN(CCOC(C)=O)c1ccc(N=Nc2nc3ccc(Cl)cc3s2)c(NC(=O)c2ccccc2)c1 |  |  |  |  |  | not readily biodegradable | 
36 | CCCN(CCC)c1c([N+](=O)[O-])cc(S(C)(=O)=O)cc1[N+](=O)[O-] | -8.03 | 150 |  |  |  | not readily biodegradable | 2.92
37 | CCOC(=O)c1ccccc1Br |  |  | 254 |  |  |  | 
38 | CC(C)(CCl)c1ccccc1 |  |  | 223 |  |  |  | 
39 | CC(F)(Cl)CCl (stereo unspecified) |  | -91.7 | 88.6 |  |  |  | 
40 | Cc1cc(C)c(C(C)C)cc1C |  | 21 | 221 |  |  |  | 
41 | Clc1cc(Cl)cc(-c2c(Cl)c(Cl)cc(Cl)c2Cl)c1 |  |  |  |  | -4.54 |  | 
42 | Oc1ccc(Cc2ccccc2)cc1 |  | 84 | 322 |  |  | not readily biodegradable | 
43 | O=C1C(O)=C(O)C(=O)c2ccccc21 |  | 282 |  |  |  |  | 
44 | NC(=S)C(N)=S | -5.78 |  |  |  |  |  | 
45 | Cc1ccc(O)cc1N |  | 158 |  |  |  |  | 
46 | CC(C)C#N | 1.51 | -71.5 | 104 | 2.87 |  | readily biodegradable | 
47 | Nc1ccc2ccc3ccccc3c2c1 |  | 143 |  |  |  |  | 
48 | CC(Cl)C(Cl)(Cl)Cl (stereo unspecified) |  | -64 | 152 |  |  |  | 
49 | CN1CCC(CCCC2CCN(C)CC2)CC1 |  | 13.7 |  |  |  |  | 
50 | ClC1=C(Cl)C2(Cl)C3CCC4C(CCC3C1(Cl)C2(Cl)Cl)C1(Cl)C(Cl)=C(Cl)C4(Cl)C1(Cl)Cl (stereo unspecified) |  |  |  |  |  | not readily biodegradable | 
51 | COC(CBr)OC |  |  | 149 |  |  |  | 
52 | CCOC(OCC)(OCC)OCC |  |  | 160 |  |  |  | 

Row | SMILES | log10 vapour pressure (mmHg) | melting point [°C] | boiling point [°C] | log10 Koa | log10 Henry constant (atm·m³/mol) | ready biodegradability | log10 Koc (L/kg)
53 | Clc1ccccc1C(Cl)(Cl)Cl | -1.3 | 29.4 | 264 |  |  |  | 
54 | CCC(c1ccc(O)cc1)c1ccc(O)cc1 |  | 132 |  |  |  |  | 
55 | CCCC(O)(CC)CCC |  |  | 182 |  |  |  | 
56 | O=C(CC(=O)C(F)(F)F)C(F)(F)F |  |  | 70 |  |  |  | 
57 | C[Si](C)(CCl)c1ccccc1 |  |  | 225 |  |  |  | 
58 | NC(=O)c1cc(Cl)cc(Cl)c1N |  | 162 |  |  |  |  | 
59 | O=C(Cl)CCCC(=O)Cl | -0.932 |  | 217 |  |  |  | 
60 | C1CC[C@H]2CCC[C@@H]2C1 (racemic) |  | -53 | 167 |  |  |  | 
61 | C#CCCCCC#C |  |  | 136 |  |  |  | 
62 | O=c1ccc2cc3ccoc3c(O)c2o1 |  | 252 |  |  |  |  | 
63 | O=C(Cl)/C=C/C(=O)Cl | 0.316 |  | 159 |  |  |  | 
64 | CCCCC1C(=O)N(c2ccccc2)N(c2ccccc2)C1=O |  | 105 |  |  |  |  | 
65 | CCOC(=O)[C@@H](C)Oc1ccc(Oc2nc3ccc(Cl)cc3o2)cc1 | -7.52 |  |  |  |  |  | 
66 | COc1nc(C)nc(NC(=O)NS(=O)(=O)c2ccccc2Cl)n1 | -10.6 | 176 |  |  |  |  | 2.19
67 | CCO | 1.77 | -114 | 78.2 |  | -5.3 | readily biodegradable | 
68 | Oc1ccc2cccc(O)c2c1 |  | 180 |  |  |  |  | 
69 | CCOC(=O)C=CCC(=O)OCC |  |  | 237 |  |  |  | 
70 | CCCCCCCCCCO | -2.07 | 6.9 | 231 |  | -4.49 | readily biodegradable | 2.59
71 | COc1cc(O)ccc1O |  | 90 |  |  |  |  | 
72 | Cc1ccc2c(c1N)C(=O)c1ccccc1C2=O |  | 206 |  |  |  |  | 3.9
73 | Nc1c([N+](=O)[O-])cc(Cl)cc1[N+](=O)[O-] |  | 147 |  |  |  |  | 
74 | CCCCC[C@@H](O)CC | -0.592 | -45 | 171 |  |  |  | 
75 | Clc1ccccc1-c1cccc(Cl)c1Cl |  |  |  |  | -3.7 |  | 
76 | OCc1cccc(I)c1 |  |  | 252 |  |  |  | 
77 | CC(=O)Oc1cc(C(C)C)c(OCCN(C)C)cc1C |  | 144 |  |  |  |  | 
78 | On1nnc2ccccc21 |  | 158 |  |  |  |  | 

Row | SMILES | log10 vapour pressure (mmHg) | melting point [°C] | boiling point [°C] | log10 Koa | log10 Henry constant (atm·m³/mol) | ready biodegradability | log10 Koc (L/kg)
79 | CCC(O)C(C)O (stereo unspecified) |  |  | 188 |  |  |  | 
80 | C1=CCCCC=C1 |  | -110 | 120 |  |  |  | 
81 | COC(=O)c1c(Cl)nn(C)c1S(=O)(=O)NC(=O)Nc1nc(OC)cc(OC)n1 |  | 176 |  |  |  |  | 
82 | O=CNC(O)C(Cl)(Cl)Cl (stereo unspecified) |  | 120 |  |  |  |  | 
83 | CCCCCS(=O)CCCCC |  | 58 |  |  |  |  | 
84 | C#CC(C)OC(=O)Nc1cccc(Cl)c1 (stereo unspecified) | -4.8 | 45.5 |  |  |  |  | 2.21
85 | O=C1CCCCC1C1CCCCC1 (stereo unspecified) |  | -32 | 264 |  |  |  | 
86 | CC(C(=O)O)c1ccc(N2Cc3ccccc3C2=O)cc1 (stereo unspecified) |  | 214 |  |  |  |  | 
87 | C=C[C@H]1C[N@@]2CCC1C[C@H]2c1[nH]c2ccccc2c1CCO |  | 186 |  |  |  |  | 
88 | CC(=O)Oc1cccc(O)c1 |  |  | 283 |  |  |  | 
89 | COC(=O)C(=O)OC | 0.0584 | 54.3 | 164 |  |  |  | 
90 | c1ccc(CCCc2ccccc2)cc1 |  | 6 | 300 |  |  |  | 
91 | N#Cc1cc(Br)c(O)c(Br)c1 | -7.33 | 190 |  |  |  | readily biodegradable | 
92 | COc1cc([N+](=O)[O-])c2ncccc2c1 |  | 159 |  |  |  |  | 
93 | CC(Br)CBr (stereo unspecified) | 0.894 | -55.5 | 142 |  |  |  | 
94 | CN1C(=O)C(O)N=C(c2ccccc2Cl)c2cc(Cl)ccc21 (stereo unspecified) |  | 206 |  |  |  |  | 
95 | CCCCCCCS | 0.116 | -43 | 177 |  |  |  | 
96 | CCCOB(OCCC)OCCC |  |  | 180 |  |  |  | 
97 | CCC(C(=O)NC(=O)NC(C)=O)c1ccccc1 (stereo unspecified) |  | 100 |  |  |  |  | 
98 | O=C1CSC(=O)N1 |  | 128 |  |  |  |  | 
99 | Oc1ccc(C2CCCC2)cc1 |  | 65 |  |  |  |  | 
100 | COc1ccc(N)cc1Cl |  | 52.5 |  |  |  |  | 1.93
101 | OCCCCCCCCO |  | 63 |  |  |  |  | 
102 | Nc1ncc(C=O)s1 |  |  |  |  |  | readily biodegradable | 
103 | COc1ccc2c3c([nH]c2c1)[C@H]1C[C@H]2[C@H](C[C@@H](O)[C@H](OC)[C@H]2C(=O)O)CN1CC3 |  | 242 |  |  |  |  | 

Same assay, conditions: fish

Row | SMILES | log10 BCF | log10 biotransformation half-life (days)
104 | O=C(O)C1CC=CCC1C(=O)O (stereo unspecified) | 0.3 | -0.57
105 | Oc1ccc(Cc2ccccc2)cc1 | 1.33 | -0.86
106 | CCCCCCC1CCCC(C)C1 (stereo unspecified) |  | 0.97
